Values of other authors as cited in article PMC9516332 (Frontiers in Oncology, 2022).
Read-outs that look alike come from different tables or passages of the source.

What was measured:
Details in all cases: cited from earlier work
[1] = molecular target: panel of 255 wild-type kinases (Homo sapiens, UniProt P08581)
[2] = molecular target: panel of 255 wild-type kinases (Homo sapiens, UniProt Q15418)
[3] = molecular target: T1, panel of 255 wild-type kinases (Homo sapiens, UniProt P51813)
T1 sequence (P51813 1-675): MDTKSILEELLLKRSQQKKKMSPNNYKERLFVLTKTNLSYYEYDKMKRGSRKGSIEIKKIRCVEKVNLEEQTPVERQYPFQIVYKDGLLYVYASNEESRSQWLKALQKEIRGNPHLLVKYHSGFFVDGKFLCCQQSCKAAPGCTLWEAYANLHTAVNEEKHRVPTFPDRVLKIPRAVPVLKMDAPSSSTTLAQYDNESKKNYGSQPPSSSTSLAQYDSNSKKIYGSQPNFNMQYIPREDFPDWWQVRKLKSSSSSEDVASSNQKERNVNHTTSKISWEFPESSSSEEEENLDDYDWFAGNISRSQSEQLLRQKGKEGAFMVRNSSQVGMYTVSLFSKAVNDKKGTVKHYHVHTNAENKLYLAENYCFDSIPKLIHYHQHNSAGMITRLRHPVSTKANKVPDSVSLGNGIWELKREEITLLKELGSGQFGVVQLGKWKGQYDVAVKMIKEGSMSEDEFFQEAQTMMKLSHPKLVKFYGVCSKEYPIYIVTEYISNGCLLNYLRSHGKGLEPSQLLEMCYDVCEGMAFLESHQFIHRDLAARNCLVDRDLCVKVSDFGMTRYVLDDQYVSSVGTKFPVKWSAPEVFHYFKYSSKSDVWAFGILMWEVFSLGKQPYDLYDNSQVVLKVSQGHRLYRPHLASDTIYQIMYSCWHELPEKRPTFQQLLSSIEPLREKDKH

[4] = molecular target: panel of 255 wild-type kinases (Homo sapiens, UniProt P08922)
[5] = molecular target: panel of 255 wild-type kinases (Homo sapiens, UniProt P22694)
[6] = molecular target: T2, panel of 255 wild-type kinases (Homo sapiens, UniProt Q8IW41)
T2 sequence (Q8IW41 1-473): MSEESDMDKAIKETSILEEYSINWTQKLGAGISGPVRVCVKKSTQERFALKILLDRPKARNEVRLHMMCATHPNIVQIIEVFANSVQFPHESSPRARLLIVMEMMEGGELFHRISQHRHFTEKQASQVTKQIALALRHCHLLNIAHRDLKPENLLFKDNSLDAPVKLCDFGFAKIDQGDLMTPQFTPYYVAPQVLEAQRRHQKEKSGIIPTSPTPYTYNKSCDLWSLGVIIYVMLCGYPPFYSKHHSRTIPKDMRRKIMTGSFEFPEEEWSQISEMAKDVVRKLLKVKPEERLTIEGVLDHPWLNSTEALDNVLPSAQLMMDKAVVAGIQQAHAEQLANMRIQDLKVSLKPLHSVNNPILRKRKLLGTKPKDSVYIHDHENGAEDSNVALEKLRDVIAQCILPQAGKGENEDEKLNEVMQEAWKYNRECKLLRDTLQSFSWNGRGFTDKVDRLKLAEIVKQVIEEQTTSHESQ

[7] = molecular target: T3, panel of 255 wild-type kinases (Homo sapiens, UniProt Q13043)
T3 sequence (Q13043 1-487): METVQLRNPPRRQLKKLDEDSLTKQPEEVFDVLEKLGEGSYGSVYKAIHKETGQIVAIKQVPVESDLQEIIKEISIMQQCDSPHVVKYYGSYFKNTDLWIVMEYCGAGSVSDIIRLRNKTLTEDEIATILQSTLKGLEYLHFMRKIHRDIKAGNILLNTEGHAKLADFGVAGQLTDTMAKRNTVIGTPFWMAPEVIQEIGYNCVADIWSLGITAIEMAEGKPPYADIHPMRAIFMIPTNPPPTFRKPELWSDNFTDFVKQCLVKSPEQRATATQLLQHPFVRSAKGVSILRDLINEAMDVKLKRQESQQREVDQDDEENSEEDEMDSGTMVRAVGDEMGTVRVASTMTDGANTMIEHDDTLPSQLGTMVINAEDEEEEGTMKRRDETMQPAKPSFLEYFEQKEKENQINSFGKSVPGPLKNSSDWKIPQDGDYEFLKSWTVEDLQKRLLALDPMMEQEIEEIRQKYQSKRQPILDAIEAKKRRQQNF

[8] = molecular target: panel of 255 wild-type kinases (Homo sapiens, UniProt Q00534)
[9] = molecular target: panel of 255 wild-type kinases (Homo sapiens, UniProt O00311)
[10] = molecular target: panel of 255 wild-type kinases (Homo sapiens, UniProt P49674)
[11] = molecular target: panel of 255 wild-type kinases (Homo sapiens, UniProt P10721)
[12] = molecular target: panel of 255 wild-type kinases (Homo sapiens, UniProt Q9HCP0)
[13] = MET, 1 µmol/L single concentration, ref DOI: 10.1158/1535-7163.MCT-18-0877
[14] = kinase RSK1, 1 µmol/L single concentration, ref DOI: 10.1158/1535-7163.MCT-18-0877
[15] = BMX kinase assay, 1 µmol/L single concentration, ref DOI: 10.1158/1535-7163.MCT-18-0877
[16] = kinase ROS, 1 µmol/L single concentration, ref DOI: 10.1158/1535-7163.MCT-18-0877
[17] = kinase PKACβ, 1 µmol/L single concentration, ref DOI: 10.1158/1535-7163.MCT-18-0877
[18] = MAPKAPK5, 1 µmol/L single concentration, ref DOI: 10.1158/1535-7163.MCT-18-0877
[19] = MST1, 1 µmol/L single concentration, ref DOI: 10.1158/1535-7163.MCT-18-0877
[20] = CDK6/CycD3 kinase assay, 1 µmol/L single concentration, ref DOI: 10.1158/1535-7163.MCT-18-0877
[21] = CDC7/ASK kinase assay, 1 µmol/L single concentration, ref DOI: 10.1158/1535-7163.MCT-18-0877
[22] = kinase CK1ε, 1 µmol/L single concentration, ref DOI: 10.1158/1535-7163.MCT-18-0877
[23] = kinase KIT, 1 µmol/L single concentration, ref DOI: 10.1158/1535-7163.MCT-18-0877
[24] = kinase CK1γ1, 1 µmol/L single concentration, ref DOI: 10.1158/1535-7163.MCT-18-0877

Row | Structure (SMILES) | %-inhibition, MET [1, 13] [%] | %-inhibition at 1 µmol/L, RSK1 [2, 14] [%] | %-inhibition BMX [3, 15] [%] | %-inhibition at 1 µmol/L, ROS [4, 16] [%] | %-inhibition at 1 µmol/L, PKACβ [5, 17] [%] | %-inhibition, MAPKAPK5 [6, 18] [%] | %-inhibition, MST1 [7, 19] [%] | %-inhibition CDK6/CycD3 [8, 20] [%] | %-inhibition CDC7/ASK [9, 21] [%] | %-inhibition at 1 µmol/L, CK1ε [10, 22] [%] | %-inhibition at 1 µmol/L, KIT [11, 23] [%] | %-inhibition at 1 µmol/L, CK1γ1 [12, 24] [%] | further results
1 | O=C(c1ccc(F)c(F)c1Nc1ccc(I)cc1F)N1CC(O)([C@@H]2CCCCN2)C1 [cobimetinib] | 7 | 1.39 | 3.49 | 3 | -6.51 | -1 | -9 | 0.129 | 5 | 2.44 | -17 | 2.67 | 
2 | C=CC(=O)Nc1cc(Nc2nccc(-c3cn(C)c4ccccc34)n2)c(OC)cc1N(C)CCN(C)C [osimertinib] | 12 | 42 | 57 | 101 | -6 | 0.814 | 1.52 | 0.62 | 1.64 | 18 | -13 | 10 | 
3 | COc1cc(N2CCC(N3CCN(C)CC3)CC2)ccc1Nc1ncc(Cl)c(Nc2ccccc2P(C)(C)=O)n1 [brigatinib] |  |  |  |  |  |  |  |  |  |  |  |  | %-inhibition, MET [1]: 41%; %-inhibition at 1 µmol/L, RSK1 [2]: 98%; %-inhibition BMX [3]: 18%; %-inhibition at 1 µmol/L, ROS [4]: 101%; %-inhibition at 1 µmol/L, PKACβ [5]: 9%; %-inhibition, MAPKAPK5 [6]: 3.41%; %-inhibition, MST1 [7]: 71%; %-inhibition CDK6/CycD3 [8]: 18%; %-inhibition CDC7/ASK [9]: 0.868%; %-inhibition at 1 µmol/L, CK1ε [10]: 0.661%; %-inhibition at 1 µmol/L, KIT [11]: 51%; %-inhibition at 1 µmol/L, CK1γ1 [12]: 1.13%
